Laboratory results published in patent US20240173329A1, “BELVARAFENIB FOR USE IN TREATMENT OF BRAIN CANCERS” (Genentech, Inc., priority 2021, published 2024).
pIC50: −log10 of the molar value. Entries after “also recorded” stand apart in the source; their conditions may differ. Read-outs that look alike come from different tables or passages of the source.

Assays:
[1] = cited from earlier work; for B/P (nonclinical), percentage of brain exposure relative to plasma: mice, literature
P-gp/BCRP = details: literature, cited from earlier work
[2] = tested on: patients who harbored a BRAF, NRAS, or KRAS mutation; details: cited from earlier work
[3] = healthy subjects; cited from earlier work
[4] = concentration-independent; cited from earlier work
[5] = tested on: human tumor xenograft models; details: highest doses tested; cited from earlier work
BCRP (ABCG2) [6] = target: T1, BCRP (ABCG2) (Homo sapiens, UniProt Q9UNQ0); assay: Vesicular transport inhibition assay; type: in vitro ADME; details: BCRP-mediated E3S accumulation
T1 construct: expressed by SOLVO Biotechnology in mammalian (K and M) cells by chemical selection; purchased SOLVO Biotechnology; host or cells: mammalian (K and M) cells, overexpression by chemical selection
T1 sequence (Q9UNQ0 1-655): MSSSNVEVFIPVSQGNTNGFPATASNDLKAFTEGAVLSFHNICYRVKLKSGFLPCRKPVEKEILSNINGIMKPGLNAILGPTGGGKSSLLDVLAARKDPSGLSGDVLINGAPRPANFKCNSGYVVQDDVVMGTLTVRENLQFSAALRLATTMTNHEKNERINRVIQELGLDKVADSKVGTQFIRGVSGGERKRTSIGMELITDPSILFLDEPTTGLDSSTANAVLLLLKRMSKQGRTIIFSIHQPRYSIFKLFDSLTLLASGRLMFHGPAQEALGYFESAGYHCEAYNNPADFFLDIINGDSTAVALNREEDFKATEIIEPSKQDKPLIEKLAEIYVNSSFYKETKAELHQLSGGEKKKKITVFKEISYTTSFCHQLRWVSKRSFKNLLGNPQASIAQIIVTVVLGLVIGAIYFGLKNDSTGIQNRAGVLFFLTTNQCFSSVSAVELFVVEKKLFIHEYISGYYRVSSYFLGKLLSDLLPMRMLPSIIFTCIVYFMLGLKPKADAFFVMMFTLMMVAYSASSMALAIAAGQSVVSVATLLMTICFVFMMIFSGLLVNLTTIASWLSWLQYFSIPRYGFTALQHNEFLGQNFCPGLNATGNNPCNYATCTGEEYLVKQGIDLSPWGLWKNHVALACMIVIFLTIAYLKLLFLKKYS
Description: (§1) Stock solutions of belvarafenib 2HCl (10 mM, 1.33 mM, 1 mM and 0.1 mM) were prepared in DMSO. Serial dilutions (7-step, 3-fold) were prepared in DMSO, and used as the test solutions in the inhibition assays (100-fold dilution). The dilution factor in substrate experiments was 100-fold.
(§2) Instruments used for detection include a Thermo Scientific Dionex UltiMate 3000 series UHPLC (Thermo Scientific, San Jose, CA) with a Thermo Scientific TSQ Quantum Access Max triple quadrupole MS; a Perkin Elmer MicroBeta2liquid scintillation counter (Perkin Elmer, Waltham MA) and a BMG Labtech FluoStar Omega multifunctional microplate reader (BMG Labtech, Offenburg, Germany).
(§3) Vesicular transport assays were performed with inside-out membrane vesicles prepared from cells overexpressing human ABC transporters. The transporter has been expressed by SOLVO Biotechnology in mammalian (K and M) cells by chemical selection.
(§4) Parameters of the vesicular transport assays are listed in Table 6 where: “BCRP” refers to breast cancer resistance protein; “MDR1” refers to multidrug resistance protein 1; “E3S” refers to Estrone-3-sulfate; and “NMQ” refers to N-methyl quinidine.
(§5) Belvarafenib 2HCl was incubated with membrane vesicle preparations (total protein: 50 μg/well for MDR1, and 25 µg/well for BCRP) and the probe substrate. Incubations were carried out in the presence of 4 mM ATP or AMP to distinguish between transporter-mediated uptake and passive diffusion into the vesicles. Belvarafenib 2HCl was added to the reaction mixture in 0.75 μL of solvent ([…] of the final incubation volume). Reaction mixtures were pre-incubated for 15 minutes at 37±1° C. (or 32±1° C. for BCRP). Reactions were initiated by the addition of 25 μL of 12 mM MgATP (or 12 mM AMP in assay buffer as a background control), preincubated separately. Reactions were quenched by the addition of 200 μL of ice-cold washing buffer and immediate filtration via glass fiber filters mounted to a 96-well plate (filter plate). The filters were washed (5×200 μL of ice-cold washing buffer), dried and the amount of substrate inside the filtered vesicles was determined by liquid scintillation counting.
(§6) The controls were as follows. Incubation with AMP provided background activity values for all data points. Incubation with probe substrate (solvent only) provided 100% activity values. A reference inhibitor served as positive control for inhibition.
(§7) For all wells the amount of the translocated probe substrate was determined in cpm. Relative activities were calculated using the following equation: Relative Activity %=(A−B)/(C−D)*100. A is the amount of translocated substrate in the presence of TA and ATP. B is the amount of translocated substrate in the presence of TA and AMP. C is the amount of translocated substrate in the presence of solvent and ATP. D is the amount of translocated substrate in the presence of solvent and AMP.
(§8) Microsoft Excel 2010 (Microsoft Corporation, Redmond, WA) was used for basic data processing and GraphPad Prism 5.0 (GraphPad Software Inc., San Diego, CA) was used for curve fitting and determination of reaction parameters. In vesicular transport inhibition assays, the IC50 (μM) was calculated, where applicable. IC50 was defined as the concentration of TA required to inhibit maximal activity by 50%. IC50 values were derived from a four parametric logistic equation [log(inhibitor) vs. response−variable slope]; the curve was fitted to the relative activity vs. TA concentration plot using non-linear regression.

MDR1 (ABCB1/P-gp) [7] = target: T2, MDR1 (ABCB1/P-gp) (Homo sapiens, UniProt P08183); assay: Vesicular transport inhibition assay; type: in vitro ADME; details: MDR1-mediated NMQ accumulation
T2 construct: expressed by SOLVO Biotechnology in mammalian (K and M) cells by chemical selection; purchased SOLVO Biotechnology; host or cells: mammalian (K and M) cells, overexpression by chemical selection
Description: as §1, §2, §3, §4, §5, §6, §7, §8

BCRP (ABCG2) [8] = target: T1, BCRP (ABCG2); assay: Vesicular transport substrate assay; type: in vitro ADME
Description: as §1, §2, §3
(§9) Experimental method for vesicular transport substrate assay. The uptake of belvarafenib 2HCl into membrane vesicles was determined using inside-out membrane vesicles (total protein: 50 μg/well for MDR1, or 25 μg/well for BCRP) prepared from cells overexpressing BCRP or MDR1 ABC transporters as well as from control cells. Two incubation time points (2 and 20 min) and two concentrations (1 and 10 μM) of belvarafenib 2HCl were tested in the presence of ATP or AMP, to determine whether belvarafenib 2HCl is actively transported into the vesicles. Reaction mixtures as well as start reagents (MgATP and AMP solutions) were pre-incubated for 15 minutes at 32° C. for BCRP, and 37° C. for MDR1 assay. Reactions were initiated by addition of the start reagent (MgATP or AMP) to the appropriate wells. Reactions were quenched by the addition of 200 μL of ice-cold washing buffer and immediate filtration via glass fiber filters mounted to a 96-well plate (filter plate). The filters were washed 5×200 μL of ice-cold washing buffer and dried. The amount of accumulated belvarafenib 2HCl retained inside the vesicles was determined by LC-MS/MS detection after washing the vesicles 2 times with 100 μL MeOH:H2O (2:1).
(§10) In the vesicular transport substrate assays, the ATP-dependent transport of the TA as well as the ATP-dependent fold accumulation was calculated for each concentration and time point using the following equation, in both the transporter-containing and control vesicles:
(§11) ATP−dependent transport=nATP−NAMP Fold accumulation=nATP/nAMP
(§12) nATP is the amount of translocated TA in the presence of 4 mM ATP, in pmol/mg. nAMP is the amount of translocated TA in the presence of 4 mM AMP, in pmol/m. […]

MDR1 (ABCB1/P-gp) [9] = target: T2, MDR1 (ABCB1/P-gp); assay: Vesicular transport substrate assay; type: in vitro ADME
Description: as §1, §2, §3, §9, §10, §11, §12

[10] = Stage III of Study MEK4592g, 18 patients
[11] = cobimetinib single agent, Study MEK4592g

T2 sequence (P08183 whole entry): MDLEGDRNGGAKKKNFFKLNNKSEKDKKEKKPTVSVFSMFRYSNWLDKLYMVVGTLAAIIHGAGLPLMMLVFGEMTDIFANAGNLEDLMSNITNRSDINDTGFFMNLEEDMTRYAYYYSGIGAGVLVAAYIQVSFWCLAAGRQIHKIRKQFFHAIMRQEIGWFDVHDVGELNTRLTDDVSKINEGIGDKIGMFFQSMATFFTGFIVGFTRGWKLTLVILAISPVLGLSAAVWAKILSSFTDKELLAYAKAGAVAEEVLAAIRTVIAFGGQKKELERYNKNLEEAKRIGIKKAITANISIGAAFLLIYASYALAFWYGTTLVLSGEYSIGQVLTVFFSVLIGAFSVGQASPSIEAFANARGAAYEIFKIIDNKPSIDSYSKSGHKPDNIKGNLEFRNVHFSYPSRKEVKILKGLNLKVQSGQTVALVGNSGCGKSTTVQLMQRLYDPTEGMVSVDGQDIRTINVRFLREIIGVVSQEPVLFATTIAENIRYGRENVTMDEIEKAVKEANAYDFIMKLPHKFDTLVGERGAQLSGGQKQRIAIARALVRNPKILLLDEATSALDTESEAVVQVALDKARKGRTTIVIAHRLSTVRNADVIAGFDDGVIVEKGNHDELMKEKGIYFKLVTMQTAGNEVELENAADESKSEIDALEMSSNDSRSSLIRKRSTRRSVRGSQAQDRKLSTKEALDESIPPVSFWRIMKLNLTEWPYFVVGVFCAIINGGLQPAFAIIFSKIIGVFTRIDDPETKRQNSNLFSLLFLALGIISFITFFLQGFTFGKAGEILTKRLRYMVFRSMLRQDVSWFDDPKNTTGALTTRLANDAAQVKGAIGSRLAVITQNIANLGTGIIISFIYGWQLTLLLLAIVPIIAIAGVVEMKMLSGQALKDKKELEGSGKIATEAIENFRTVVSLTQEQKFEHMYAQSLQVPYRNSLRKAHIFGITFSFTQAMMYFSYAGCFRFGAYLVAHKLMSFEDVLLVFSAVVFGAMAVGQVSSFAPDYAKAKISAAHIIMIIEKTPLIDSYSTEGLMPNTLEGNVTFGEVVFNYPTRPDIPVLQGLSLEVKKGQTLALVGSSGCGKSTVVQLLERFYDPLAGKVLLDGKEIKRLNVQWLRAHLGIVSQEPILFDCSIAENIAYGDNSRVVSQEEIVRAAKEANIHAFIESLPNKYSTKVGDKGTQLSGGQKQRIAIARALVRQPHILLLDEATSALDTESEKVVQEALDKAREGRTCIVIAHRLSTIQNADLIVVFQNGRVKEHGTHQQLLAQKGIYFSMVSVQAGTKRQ

## CC(C)(C)c1nc(-c2cccc(NS(=O)(=O)c3c(F)cccc3F)c2F)c(-c2ccnc(N)n2)s1 [Dabrafenib]
[1]
  B/P (nonclinical), percentage of brain exposure relative to plasma: 2-4%
P-gp/BCRP
  P-gp/BCRP efflux substrate?: Yes (P-gp + BCRP)
P-gp/BCRP; listed as dabrafenib
  P-gp/BCRP efflux substrate?: is a P-gp and a BCRP efflux substrate

## CCCS(=O)(=O)Nc1ccc(F)c(C(=O)c2c[nH]c3ncc(-c4ccc(Cl)cc4)cc23)c1F [Vemurafenib]
[1]
  B/P (nonclinical), percentage of brain exposure relative to plasma: 0.4-1% ^
P-gp/BCRP
  P-gp/BCRP efflux substrate?: Yes (P-gp + BCRP)
P-gp/BCRP; listed as vemurafenib
  P-gp/BCRP efflux substrate?: is a P-gp and a BCRP efflux substrate

## COC(=O)N[C@@H](C)CNc1nccc(-c2cn(C(C)C)nc2-c2cc(Cl)cc(NS(C)(=O)=O)c2F)n1 [Encorafenib]
[1]; literature values
  brain to plasma ratio: about 0.004
[1]
  B/P (nonclinical), percentage of brain exposure relative to plasma: 0.4%
P-gp/BCRP
  P-gp/BCRP efflux substrate?: Yes (P-gp + BCRP)
P-gp/BCRP; listed as encorafenib
  P-gp/BCRP efflux substrate?: is a P-gp and a BCRP efflux substrate

## Cn1cnc2c(F)c(Nc3ccc(Br)cc3Cl)c(C(=O)NOCCO)cc21 [Selumetinib]
[1]
  B/P (nonclinical), percentage of brain exposure relative to plasma: 2%
P-gp/BCRP
  P-gp/BCRP efflux substrate?: Yes (P-gp + BCRP)

## CC(=O)Nc1cccc(-n2c(=O)n(C3CC3)c(=O)c3c(Nc4ccc(I)cc4F)n(C)c(=O)c(C)c32)c1 [Trametinib]
[1]
  B/P (nonclinical), percentage of brain exposure relative to plasma: 15%
P-gp/BCRP
  P-gp/BCRP efflux substrate?: Yes (P-gp + BCRP)

## O=C(c1ccc(F)c(F)c1Nc1ccc(I)cc1F)N1CC(O)([C@@H]2CCCCN2)C1 [Cobimetinib]
[1]
  B/P (nonclinical), percentage of brain exposure relative to plasma: 30%
P-gp/BCRP
  P-gp/BCRP efflux substrate?: Yes (P-gp)
[2]; [10]
  patients with SD as best overall response: 22.2%
  patients with unconfirmed tumor responses: 11.1%
[2]; [11]
  patients with confirmed partial response (PR): 6.2%
  patients with progressive disease: 41.2%
[3]
  food effect on pharmacokinetics, fed state compared with fasted state: not altered
[4]
  binding to plasma proteins: 95%
[5]
  tumor regression: up to 100%

## C[C@@H](NC(=O)c1ncnc(N)c1Cl)c1ncc(C(=O)Nc2cc(C(F)(F)F)c(Cl)cn2)s1 [DAY101]
[1]
  B/P (nonclinical), percentage of brain exposure relative to plasma: 20-34% ^
P-gp/BCRP
  P-gp/BCRP efflux substrate?: Yes (BCRP)

## Cc1ccc2c(Nc3cccc(Cl)c3F)nccc2c1NC(=O)c1csc2c(N)ncnc12 [belvarafenib 2HCl]
BCRP (ABCG2) [6]; 0.02-13.3 μM
  Maximum inhibition (% of control): 99.8%
BCRP (ABCG2) [6]; estimated, top of the curve constrained at 100%
  pIC50: 7.96
BCRP (ABCG2) [6]; human, probe estrone-3-sulfate (E3S), 0.02 μM, read-out: inhibition at the lowest investigated concentration
  inhibition at 0.02 µM: 70%
MDR1 (ABCB1/P-gp) [7]; estimated, bottom constrain (0%), inhibition did not reach 50%
  pIC50: 4.53
MDR1 (ABCB1/P-gp) [7]; human, probe N-methyl quinidine (NMQ), highest applied concentration (13.3 μM), read-out: Maximum inhibition (% of control)
  inhibition at 13.3 µM: 32%
BCRP (ABCG2) [8]; 1 and 10 μM, 2 and 20 min
  Maximum ATP dependent fold accumulation in transporter expressing vesicles: 1.51
BCRP (ABCG2) [8]; BCRP VT
  Substrate: probably not a substrate; also recorded: Unlikely
MDR1 (ABCB1/P-gp) [9]; 1 and 10 μM, 2 and 20 min
  Maximum ATP dependent fold accumulation in transporter expressing vesicles: 1.23
MDR1 (ABCB1/P-gp) [9]; MDR1 VT
  Substrate: probably not a substrate; also recorded: Unlikely
